What was measured:
[1] = Stability in liver microsomes (dog); type: in vitro ADME, beagle dogs; conditions: d (beagle dog liver microsomes), 0.5 mg/mL, read-out: MMS Clint
Procedure: (§1) The purpose of this study was to evaluate the phase I metabolic stability of the assay sample in liver microsomes from CD-1 mice, Sprague-Dawley (SD) rats, beagle dogs, cynomolgus monkeys, and human.
(§2) The animal and human liver microsomes used in this assay system were purchased from Xenotech, Corning, or other qualified suppliers.
(§3) Preparation of buffer: 73.21 g of potassium phosphate dibasic trihydrate and 10.78 g of potassium dihydrogen phosphate were dissolved in 4000 mL of ultrapure water. The pH of the solution was adjusted to the range of 7.40 ± 0.10 using 10.0% phosphoric acid or 1.00 M potassium hydroxide. Its final concentration was 100 mM.
(§4) Preparation of working solutions: An assay sample powder was prepared into a 10.0 mM stock solution with DMSO, and then further diluted with a suitable organic solvent. The control compounds testosterone, diclofenac, and propafenone were prepared into 10.0 mM stock solutions using DMSO, and then further diluted with a suitable organic solvent.
(§5) Preparation of liver microsome solution: Microsomes of various species were diluted with 100 mM potassium phosphate buffer to a working solution of 0.56 mg/mL. The final concentration of microsomes in the reaction system was 0.500 mg/mL. Detailed preparation procedures were described in the experimental records.
(§6) Preparation of reduced nicotinamide adenine dinucleotide phosphate (NADPH) solution: An appropriate amount of reduced nicotinamide adenine dinucleotide phosphate was dissolved in magnesium chloride solution, and the mixture was shaken to mix well. The final concentrations in the reaction system were 1.00 mM NADPH and 1.00 mM magnesium chloride, respectively. Detailed preparation procedures were described in the experimental records.
(§7) Preparation of stop solution: The stop solution was prepared using acetonitrile containing internal standards (tolbutamide and labetalol). The prepared stop solution was stored at 2.0 to 8.0 °C in a refrigerator. Detailed preparation procedures were described in the experimental records. […]

[2] = Stability in liver microsomes (mouse); type: in vitro ADME, CD-1 mice; conditions: m (CD-1 mouse liver microsomes), 0.5 mg/mL, read-out: MMS Clint
Procedure: as §1, §2, §3, §4, §5, §6, §7

[3] = Plasma protein binding rate, equilibrium dialysis (human plasma); type: in vitro ADME; conditions: dialysis 4 hours at 37 °C, read-out: Unbound PPB%
Procedure: The protein binding rates of the compounds in the plasma of CD-1 mice, Sprague-Dawley rats, beagle dogs, cynomolgus monkeys, and human were determined using equilibrium dialysis method.
Commercially available plasma, dual-layer dialysis membrane, and equilibrium dialysis device.
The dual-layer dialysis membrane was soaked in ultrapure water for about 1 hour, removed and then divided into two parts. It was then soaked in an ethanol:water (20:80, v:v) solution for 20 minutes or placed at 2 to 8 °C, and it was valid for 1 month. Before starting the assay, the dialysis membrane was rinsed twice with ultrapure water and then soaked in ultrapure water for another 20 minutes for later use.
On the day of assay, the frozen plasma of CD-1 mice, Sprague-Dawley rats, beagle dogs, cynomolgus monkeys, and human was thawed in running cold tap water. After the plasma was completely thawed, the plasma was centrifuged at 3220×g for 5 minutes, and the suspended substances and precipitates in it were removed. The pH of the plasma was determined. The plasma with a pH in the range of 7.4 ± 0.1 was directly used, or the plasma with a pH in the range of 7.4 ± 0.1 after an adjustment with 1% phosphoric acid or 1M sodium hydroxide was used.
Preparation process of plasma samples: 597 µL of blank plasma from each of the above five species was taken, respectively. 3 µL of a compound or warfarin working solution was added, and the mixture was mixed thoroughly to give a plasma sample with a compound concentration of 2 µM and a warfarin concentration of 2 µM (n=1). The concentration of the organic phase DMSO was 0.5%. The sample was thoroughly mixed before proceeding to the next step.
Preparation process of T0 samples: 50 µL of a plasma sample containing the compound and warfarin was transferred to a sample receiving plate (n=3), and 50 µL of blank PBS was immediately added. Then, 500 µL of stop solution was added to the T0 sample of the compound and warfarin, and the mixture was stored at 2 to 8 °C, waiting to be processed later together with other dialysis-processed samples.
Dialysis process of plasma samples: 100 µL of a compound (2 µM) and warfarin (2 µM) plasma sample was added to the donor of each dialysis well (n=3), and 100 µL of blank PBS was added to the corresponding receiver of the dialysis well. The dialysis plate was placed in a 5% CO2 incubator, and incubated at 37 °C with shaking at approximately 100 rpm for 4 hours.
After the dialysis was completed, 50 µL of dialysis-processed PBS sample and dialysis-processed plasma sample (n=3) were transferred to a new 96-well plate (sample receiving plate). The corresponding volume of the corresponding blank plasma or PBS was added to the sample to make the final volume of each sample well 100 µL, with a plasma to PBS volume ratio of 1:1. All the samples were analyzed by LC-MS/MS after protein precipitation.
The formulas for calculating the unbound fraction (%Unbound), bound fraction (%Bound) and recovery fraction (%Recovery) of a compound are as follows: %Unbound = 100 ×F / T %Bound = 100 - %Unbound %Recovery = 100 ×(F + T)/ T0 wherein F is the concentration of the compound at the receiver of dialysis; T is the concentration of the compound at the supply end of dialysis; and T0 is the concentration of the compound in the plasma at time zero.

With CC(C)(C)CC(=O)Nc1nc2c(F)cc(C#N)cn2c1C1=CCCC1 [Compound 3] the CLint scaled at 1 µM [1] was under 14 mL/min/kg, the CLint scaled at 1 µM [2] was 103 mL/min/kg and the fraction unbound at 4 h, 2 µM [3] was 0.109.
CC(C)(C)CC(=O)Nc1nc2c(F)cc(C#N)cn2c1-c1ccc(OC(F)(F)F)cc1 [Compound 1] gave a CLint scaled at 1 µM [1] of 16 mL/min/kg, a CLint scaled at 1 µM [2] of 220 mL/min/kg and a fraction unbound at 4 h, 2 µM [3] of 0.051.
With CC(C)(C)CC(=O)Nc1nc2c(F)cc(C#N)cn2c1C12CC(C1)C2 [Compound 5] the CLint scaled at 1 µM [1] was under 13.8 mL/min/kg, the CLint scaled at 1 µM [2] was under 38 mL/min/kg and the fraction unbound at 4 h, 2 µM [3] was 0.231.

Source: EP4786454A1, “HETEROARYL DERIVATIVE AND USE THEREOF” (priority 2023, dated 2025)
